# Test results from patent US20080280920A1, “Plasminogen Activator Inhibitor-1 Inhibitors” (priority 2005, published 2008).
# Experiments:
# PC-3 = assay: NCI anticancer screen, PC-3; type: cell-based, human; details: PC-3, Prostate, 48 h
# OVCAR-5 = assay: NCI anticancer screen, OVCAR-5; type: cell-based, human; details: OVCAR-5, Ovarian, 48 h
# UO-31 = assay: NCI anticancer screen, UO-31; type: cell-based, human; details: Homo sapiens; UO-31, Renal, 48 h
# SK-MEL-28 = assay: NCI anticancer screen, SK-MEL-28; type: cell-based, human; details: SK-MEL-28, Melanoma, 48 h
# SNB-19 = assay: NCI anticancer screen, SNB-19; type: cell-based, human; details: SNB-19, CNS, 48 h
# OVCAR-4 = assay: NCI anticancer screen, OVCAR-4; type: cell-based, human; details: OVCAR-4, Ovarian, 48 h
# SW-620 = assay: NCI anticancer screen, SW-620; type: cell-based, human; details: SW-620, Colon, 48 h
# wildtype human PAI-1 = biological target: T1, wildtype human PAI-1 (Homo sapiens, UniProt P05121); assay: PAI-1/uPA assay (residual uPA activity, fluorescent substrate SpectroFluor); type: biochemical; details: within the concentration range tested
# T1 construct: purchased Molecular Innovations Lot# HWT-804
# T1 sequence (P05121 24-402): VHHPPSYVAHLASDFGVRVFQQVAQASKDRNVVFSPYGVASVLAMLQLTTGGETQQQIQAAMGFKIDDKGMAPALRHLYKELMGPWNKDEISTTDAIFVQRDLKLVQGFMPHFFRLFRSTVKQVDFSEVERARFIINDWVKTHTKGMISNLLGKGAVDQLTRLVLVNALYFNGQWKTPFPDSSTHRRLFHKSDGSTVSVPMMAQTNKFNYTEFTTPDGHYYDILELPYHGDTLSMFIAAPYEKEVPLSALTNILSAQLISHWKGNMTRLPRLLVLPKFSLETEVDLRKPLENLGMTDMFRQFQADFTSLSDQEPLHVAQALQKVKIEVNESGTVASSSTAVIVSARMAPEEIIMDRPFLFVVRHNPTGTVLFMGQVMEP
# Method: Principle: The assay is based on using a fluorescent substrate (SpectroFluor) to measure residual uPA following inhibition of uPA by PAI-1. PAI-1 used in the assay is pre-treated in the presence of increasing concentrations of the lead compounds to screen for any inhibitory effects on PAI-1. Method: This assay was performed in 96 well microtiter plates. The concentrations of uPA (8 nM) and PAI-1 (6 nM) used in this assay were carefully optimized when using the fluorescent substrate, SpectroFluor™. Stock solutions (10 mM) of all lead compounds were prepared fresh in DMSO. […] 20 μl of 6 nM wildtype human PAI-1 (Molecular Innovations, Lot# HWT-804) was incubated for 15-20 minutes at room temperature in 96 well microtiter plates either with buffer, (50 mM HEPES, 150 mM NaCl, 0.05% Tween-20, 1% BSA, pH 6.6) or various concentrations (10 nM to 100 μM final concentration) of lead compounds in a total volume of 80 μl. A 20 μl aliquot of 8 nM uPA (HMW) solution in 0.05M Tris Buffered™ saline (TBS), pH 8.4 was added to each well and the mixture incubated for an additional 5 minutes at RT. The proteolytic reaction was initiated by addition of 50 μl of 0.1 mM SpectroFluor (Spectrozyme UK Fluorogenic substrate) to each well. The kinetics of the free chromophore, 7-amino-4-methylcoumarin (AMC) released in the course of peptide cleavage by the protease, uPA, was monitored for 30 minutes at 37° C. on a spectrofluorometric microplate reader with an excitation wavelength of 360 nm and emission wavelength of 440 nm. Kinetic data regarding the rate of substrate cleavage by uPA was acquired with Softmax PrO™ software. The difference between the residual uPA activity in the presence or absence of untreated PAI-1, at the molar ratio used, was considered as the “total” PAI-1 activity (100%). The inhibition of uPA by PAI-1 treated with lead compounds was expressed as a percentage of the initial activity of untreated PAI-1. Controls were performed during each experiment to ensure the nearly complete inhibition of uPA by untreated PAI-1 and also to ensure the absence of any direct effect of the lead compounds on uPA alone or on SpectroFluor.
# RXF 393 = assay: NCI anticancer screen, RXF 393; type: cell-based, human; details: RXF 393, Renal, 48 h
# SNB-75 = assay: NCI anticancer screen, SNB-75; type: cell-based, human; details: SNB-75, CNS, 48 h
# NCI-H460 = assay: NCI anticancer screen, NCI-H460; type: cell-based, human; details: NCI-H460, Non-Small Cell Lung, 48 h
# 786-0 = assay: NCI anticancer screen, 786-0; type: cell-based, human; details: 786-0, Renal, 48 h
# SF-268 = assay: NCI anticancer screen, SF-268; type: cell-based, human; details: SF-268, CNS, 48 h
# ACHN = assay: NCI anticancer screen, ACHN; type: cell-based, human; details: Renal, 48 h
# HCC-2998 = assay: NCI anticancer screen, HCC-2998; type: cell-based, human; details: HCC-2998, Colon, 48 h
# OVCAR-3 = assay: NCI anticancer screen, OVCAR-3; type: cell-based, human; details: OVCAR-3, Ovarian, 48 h
# EKVX = assay: NCI anticancer screen, EKVX; type: cell-based, human; details: Non-Small Cell Lung, 48 h
# LOX IMVI = assay: NCI anticancer screen, LOX IMVI; type: cell-based, human; details: Melanoma, 48 h
# NCI-H226 = assay: NCI anticancer screen, NCI-H226; type: cell-based, human; details: NCI-H226, Non-Small Cell Lung, 48 h
# TK-10 = assay: NCI anticancer screen, TK-10; type: cell-based, human; details: TK-10, Renal, 48 h
# A498 = assay: NCI anticancer screen, A498; type: cell-based, human; details: A498, Renal, 48 h
# HL-60(TB) = assay: NCI anticancer screen, HL-60(TB); type: cell-based, human; details: Leukemia, 48 h
# MOLT-4 = assay: NCI anticancer screen, MOLT-4; type: cell-based, human; details: MOLT-4, Leukemia, 48 h
# [1] = Homo sapiens, read-out: LC50 (the source's name)
structure (smiles),measurement,setting,value
CCOC(=O)[C@H](Cc1ccccc1)NCc1cc(CN2CCN(c3ccccn3)CC2)c(O)c(OC)c1 [Compound Q012147T],GI50,PC-3; Homo sapiens,49.8 µM
same,GI50,OVCAR-5; Homo sapiens,> 100 µM
same,GI50,UO-31,94.1 µM
same,GI50,SK-MEL-28; Homo sapiens,> 100 µM
same,GI50,SNB-19; Homo sapiens,> 100 µM
same,GI50,OVCAR-4; Homo sapiens,70.2 µM
same,GI50,SW-620; Homo sapiens,> 100 µM
same,Conc. of compound required for PAI-1 inhibition (result in words),wildtype human PAI-1,No inhibition
same,GI50,RXF 393; Homo sapiens,76.5 µM
same,GI50,SNB-75; Homo sapiens,56.6 µM
same,GI50,NCI-H460; Homo sapiens,60.6 µM
same,GI50,786-0; Homo sapiens,60.2 µM
same,GI50,SF-268; Homo sapiens,> 100 µM
same,GI50,ACHN; Homo sapiens,78.2 µM
same,GI50,HCC-2998; Homo sapiens,> 100 µM
same,GI50,OVCAR-3; Homo sapiens,86.2 µM
same,GI50,EKVX; Homo sapiens,> 100 µM
same,GI50,LOX IMVI; Homo sapiens,> 100 µM
same,GI50,NCI-H226; Homo sapiens,> 100 µM
same,GI50,TK-10; Homo sapiens,83 µM
same,GI50,A498; Homo sapiens,> 100 µM
same,GI50,HL-60(TB); Homo sapiens,37.5 µM
same,GI50,MOLT-4; Homo sapiens,3.13 µM
"COc1cc(CNCC2CCN(C(=O)OC(C)(C)C)CC2)cc(CN2CCN(c3ccccn3)CC2)c1O [Compound Q012132, 2-Methoxy-4-({[(N-t-butyloxycarbonylpiperidin-4-yl)methyl]amino}methyl)-6-[(4-pyridin-2-ylpiperazin-1-yl)methyl]phenol]",GI50,PC-3; Homo sapiens,21.8 µM
same,CC50,PC-3; [1],> 100 µM
same,TGI,PC-3,81.1 µM
same,GI50,OVCAR-5; Homo sapiens,29.3 µM
same,CC50,OVCAR-5; [1],> 100 µM
same,TGI,OVCAR-5,>100 µM
same,GI50,SK-MEL-28; Homo sapiens,16.8 µM
same,CC50,SK-MEL-28; [1],75.5 µM
same,TGI,SK-MEL-28,35.6 µM
same,GI50,SNB-19; Homo sapiens,41.8 µM
same,CC50,SNB-19; [1],> 100 µM
same,TGI,SNB-19,>100 µM
same,GI50,OVCAR-4; Homo sapiens,47.8 µM
same,CC50,OVCAR-4; [1],> 100 µM
same,TGI,OVCAR-4,>100 µM
same,GI50,SW-620; Homo sapiens,16.1 µM
same,CC50,SW-620; [1],59.1 µM
same,TGI,SW-620,30.8 µM
same,Conc. of compound required for PAI-1 inhibition (result in words),wildtype human PAI-1,No inhibition
same,GI50,RXF 393; Homo sapiens,13.6 µM
same,CC50,RXF 393; [1],67.2 µM
same,TGI,RXF 393,30.2 µM
same,GI50,SNB-75; Homo sapiens,22.3 µM
same,LC50 (concentration killing 50% of cells),SNB-75; Homo sapiens,> 100 µM
same,TGI,SNB-75,49.8 µM
same,GI50,NCI-H460; Homo sapiens,21.3 µM
same,CC50,NCI-H460; [1],81.7 µM
same,TGI,NCI-H460,41.7 µM
same,TGI,786-0,28.2 µM
same,GI50,786-0; Homo sapiens,14.9 µM
same,CC50,786-0; [1],53.1 µM
same,GI50,SF-268; Homo sapiens,18.5 µM
same,LC50,SF-268; Homo sapiens,> 100 µM
same,TGI,SF-268,44.1 µM
same,GI50,ACHN; Homo sapiens,21 µM
same,CC50,ACHN; [1],> 100 µM
same,TGI,ACHN,48.5 µM
same,TGI,HCC-2998,28.9 µM
same,GI50,HCC-2998; Homo sapiens,14.5 µM
same,LC50,HCC-2998; Homo sapiens,57.7 µM
same,GI50,OVCAR-3; Homo sapiens,33.1 µM
same,CC50,OVCAR-3; [1],> 100 µM
same,TGI,OVCAR-3,>100 µM
same,GI50,EKVX; Homo sapiens,91.2 µM
same,CC50,EKVX; [1],> 100 µM
same,TGI,EKVX,>100 µM
same,GI50,LOX IMVI; Homo sapiens,14.1 µM
same,LC50 (concentration giving 50% net cell kill),LOX IMVI; Homo sapiens,55.1 µM
same,TGI,LOX IMVI,27.9 µM
same,GI50,NCI-H226; Homo sapiens,65.5 µM
same,LC50 (concentration giving 50% net cell kill),NCI-H226; Homo sapiens,> 100 µM
same,TGI,NCI-H226,>100 µM
same,GI50,TK-10; Homo sapiens,19.5 µM
same,CC50,TK-10; [1],86.5 µM
same,TGI,TK-10,41.0 µM
same,TGI,A498,36.3 µM
same,GI50,A498; Homo sapiens,17.8 µM
same,CC50,A498; [1],74.1 µM
same,GI50,HL-60(TB); Homo sapiens,14.8 µM
same,CC50,HL-60(TB); [1],72.6 µM
same,TGI,HL-60(TB),32.8 µM
same,GI50,MOLT-4; Homo sapiens,13 µM
same,CC50,MOLT-4; [1],> 100 µM
same,TGI,MOLT-4,42.4 µM
